This is an account of results in patent US11945813B2, “5-substituted 4-amino-1H-benzo[c][1,2,6]thiadiazine 2,2-dioxides and formulations and uses thereof” (Firmenich Incorporated, priority 2018, dated 2024).

The target in this assay is T1, T1R2/T1R3 taste receptor (Homo sapiens, UniProt Q8TE23).
T1 sequence (Q8TE23 20-839): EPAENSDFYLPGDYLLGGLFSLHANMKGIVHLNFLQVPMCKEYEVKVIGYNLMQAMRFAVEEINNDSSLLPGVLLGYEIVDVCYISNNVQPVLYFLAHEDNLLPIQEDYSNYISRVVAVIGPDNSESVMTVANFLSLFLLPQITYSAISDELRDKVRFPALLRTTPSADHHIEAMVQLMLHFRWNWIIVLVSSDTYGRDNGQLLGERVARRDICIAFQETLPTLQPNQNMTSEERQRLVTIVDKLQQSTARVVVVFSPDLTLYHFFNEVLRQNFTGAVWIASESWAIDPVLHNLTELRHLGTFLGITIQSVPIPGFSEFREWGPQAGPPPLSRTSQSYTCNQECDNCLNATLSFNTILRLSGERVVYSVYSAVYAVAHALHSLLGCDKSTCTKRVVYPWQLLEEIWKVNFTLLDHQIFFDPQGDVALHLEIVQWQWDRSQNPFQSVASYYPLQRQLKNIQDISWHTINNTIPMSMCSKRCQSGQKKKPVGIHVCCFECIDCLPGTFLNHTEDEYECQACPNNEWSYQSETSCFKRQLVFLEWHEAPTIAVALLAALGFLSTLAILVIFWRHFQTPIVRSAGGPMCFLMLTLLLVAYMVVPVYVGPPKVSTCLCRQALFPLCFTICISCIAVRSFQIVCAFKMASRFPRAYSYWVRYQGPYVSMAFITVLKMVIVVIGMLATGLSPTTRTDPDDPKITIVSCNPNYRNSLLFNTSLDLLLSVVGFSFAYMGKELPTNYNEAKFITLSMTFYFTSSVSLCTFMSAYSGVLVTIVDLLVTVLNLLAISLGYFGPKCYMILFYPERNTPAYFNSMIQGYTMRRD
T1 sequence (Q7RTX0 21-852 partner): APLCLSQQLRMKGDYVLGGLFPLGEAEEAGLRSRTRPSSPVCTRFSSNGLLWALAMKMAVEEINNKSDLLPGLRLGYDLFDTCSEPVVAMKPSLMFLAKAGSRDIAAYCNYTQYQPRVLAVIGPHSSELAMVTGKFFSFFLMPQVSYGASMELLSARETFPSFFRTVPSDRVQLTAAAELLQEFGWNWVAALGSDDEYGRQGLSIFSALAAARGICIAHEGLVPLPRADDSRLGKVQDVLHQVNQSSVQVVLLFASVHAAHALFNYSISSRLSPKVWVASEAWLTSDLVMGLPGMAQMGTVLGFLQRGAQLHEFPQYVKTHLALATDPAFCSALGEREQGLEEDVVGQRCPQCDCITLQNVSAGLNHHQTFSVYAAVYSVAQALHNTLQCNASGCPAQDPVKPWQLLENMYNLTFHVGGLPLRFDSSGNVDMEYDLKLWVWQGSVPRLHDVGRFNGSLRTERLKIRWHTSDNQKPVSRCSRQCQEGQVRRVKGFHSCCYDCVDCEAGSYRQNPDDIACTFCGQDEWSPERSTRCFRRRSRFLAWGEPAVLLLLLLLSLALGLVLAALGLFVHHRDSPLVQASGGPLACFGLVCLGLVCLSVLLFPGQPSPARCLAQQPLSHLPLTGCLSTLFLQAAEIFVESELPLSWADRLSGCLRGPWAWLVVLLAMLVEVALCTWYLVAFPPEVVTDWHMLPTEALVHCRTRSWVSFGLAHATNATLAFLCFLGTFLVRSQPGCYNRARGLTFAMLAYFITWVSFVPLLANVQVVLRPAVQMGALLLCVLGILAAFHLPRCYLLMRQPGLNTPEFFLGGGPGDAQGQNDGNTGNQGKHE
Put plainly: Receptor-based assay: sweetener EC50 alone and with test compound (enhancement ratio). Conditions: for Fructose Enhancement EC50 Ratio: sweetener fructose; for Sucralose Enhancement EC50 Ratio: sweetener sucralose; for Sucrose Enhancement EC50 Ratio: sweetener sucrose. It counts as cell-based. As to the method: Potencies (EC50 values) for the sweeteners sucrose, sucralose, and fructose were measured against the T1R2/T1R3 taste receptor. EC50 was determined using the sweetener alone and in the presence of 3 μM, 10 μM, or 50 μM of test compound. EC50 ratios were calculated by the ratio of potency with and without the test compound. An “A” value indicates an enhancement ratio of greater than 20. A “B” value indicates an enhancement ratio from 10 to 20. A “C” value indicates an enhancement ratio greater than 1 and less than 10.

Regarding `NC1=NS(=O)(=O)Nc2cccc(OC[C@H]3CCCN(c4cc(C(=O)NCC5CC5)ccn4)C3)c21` [Compound 617], under “10 μM test compound”, the “Fructose Enhancement EC50 Ratio” value is “C (A “C” value indicates an enhancement ratio greater than 1 and less than 10)”; the “Sucralose Enhancement EC50 Ratio” value was “A (An “A” value indicates an enhancement ratio of greater than 20)”; the “Sucrose Enhancement EC50 Ratio” value is “C (A “C” value indicates an enhancement ratio greater than 1 and less than 10)”. Further, for the setting “50 μM test compound”, the “Fructose Enhancement EC50 Ratio” value was “C (A “C” value indicates an enhancement ratio greater than 1 and less than 10)”; the “Sucralose Enhancement EC50 Ratio” value is “A (An “A” value indicates an enhancement ratio of greater than 20)”; the “Sucrose Enhancement EC50 Ratio” value was “C (A “C” value indicates an enhancement ratio greater than 1 and less than 10)”. Further, the “Sucrose Enhancement EC50 Ratio” value (3 μM test compound) was “C (A “C” value indicates an enhancement ratio greater than 1 and less than 10)”.
Take `NC1=NS(=O)(=O)Nc2cccc(OC[C@H]3CCCN(c4ccc(C(=O)NCC5CCCCC5)cn4)C3)c21` [Compound 517]: the “Sucralose Enhancement EC50 Ratio” value (10 μM test compound) was “C (A “C” value indicates an enhancement ratio greater than 1 and less than 10)”; the “Sucralose Enhancement EC50 Ratio” value (50 μM test compound) is reported as “B (A “B” value indicates an enhancement ratio from 10 to 20)”. Moreover, the “Sucrose Enhancement EC50 Ratio” value is “C (A “C” value indicates an enhancement ratio greater than 1 and less than 10)” (3 μM test compound); “C (A “C” value indicates an enhancement ratio greater than 1 and less than 10)” (10 μM test compound); “C (A “C” value indicates an enhancement ratio greater than 1 and less than 10)” (50 μM test compound).
Consider `CC(C)CNC(=O)c1cccc(N2CCC[C@H](COc3cccc4c3C(N)=NS(=O)(=O)N4)C2)n1` [Compound 416], for which the “Fructose Enhancement EC50 Ratio” value (50 μM test compound) is “C (A “C” value indicates an enhancement ratio greater than 1 and less than 10)”. The “Sucralose Enhancement EC50 Ratio” value reads like this: (10 μM test compound) “A (An “A” value indicates an enhancement ratio of greater than 20)”; (50 μM test compound) “A (An “A” value indicates an enhancement ratio of greater than 20)”. Further, the “Sucrose Enhancement EC50 Ratio” value (3 μM test compound) was “C (A “C” value indicates an enhancement ratio greater than 1 and less than 10)”; the “Sucrose Enhancement EC50 Ratio” value (10 μM test compound) is “C (A “C” value indicates an enhancement ratio greater than 1 and less than 10)”; the “Sucrose Enhancement EC50 Ratio” value (50 μM test compound) was “B (A “B” value indicates an enhancement ratio from 10 to 20)”.
On to `Cc1cc(C)nc(NC(C)(C)COc2cccc3c2C(N)=NS(=O)(=O)N3)n1` [Compound 103], for which, under “10 μM test compound”, the “Fructose Enhancement EC50 Ratio” value is “C (A “C” value indicates an enhancement ratio greater than 1 and less than 10)”; the “Sucralose Enhancement EC50 Ratio” value is listed as “A (An “A” value indicates an enhancement ratio of greater than 20)”; the “Sucrose Enhancement EC50 Ratio” value is “C (A “C” value indicates an enhancement ratio greater than 1 and less than 10)”. Where the note is “50 μM test compound”, the “Fructose Enhancement EC50 Ratio” value was “C (A “C” value indicates an enhancement ratio greater than 1 and less than 10)”; the “Sucralose Enhancement EC50 Ratio” value was “A (An “A” value indicates an enhancement ratio of greater than 20)”; the “Sucrose Enhancement EC50 Ratio” value is “C (A “C” value indicates an enhancement ratio greater than 1 and less than 10)”. In addition, where the note is “3 μM test compound”, the “Sucrose Enhancement EC50 Ratio” value is “C (A “C” value indicates an enhancement ratio greater than 1 and less than 10)”.
Turning to `CN1CCN(C(=O)c2cccc(N3CCC[C@H](COc4cccc5c4C(N)=NS(=O)(=O)N5)C3)n2)CC1` [Compound 415], the “Fructose Enhancement EC50 Ratio” value by setting is: (10 μM test compound) “C (A “C” value indicates an enhancement ratio greater than 1 and less than 10)”; (50 μM test compound) “C (A “C” value indicates an enhancement ratio greater than 1 and less than 10)”. For the same compound, the “Sucralose Enhancement EC50 Ratio” value (50 μM test compound) is “A (An “A” value indicates an enhancement ratio of greater than 20)”. The “Sucrose Enhancement EC50 Ratio” value is, setting by setting: (3 μM test compound) “C (A “C” value indicates an enhancement ratio greater than 1 and less than 10)”; (10 μM test compound) “C (A “C” value indicates an enhancement ratio greater than 1 and less than 10)”; (50 μM test compound) “C (A “C” value indicates an enhancement ratio greater than 1 and less than 10)”.
`NC1=NS(=O)(=O)Nc2cccc(OC[C@H]3CCCN(c4ccc(C(=O)NC5CCCC5)cn4)C3)c21` [Compound 508]: for the setting “50 μM test compound”, the “Fructose Enhancement EC50 Ratio” value is “C (A “C” value indicates an enhancement ratio greater than 1 and less than 10)”. For the same compound, the “Sucralose Enhancement EC50 Ratio” value runs as follows: (10 μM test compound) “B (A “B” value indicates an enhancement ratio from 10 to 20)”; (50 μM test compound) “A (An “A” value indicates an enhancement ratio of greater than 20)”. Moreover, the “Sucrose Enhancement EC50 Ratio” value reads like this: (3 μM test compound) “C (A “C” value indicates an enhancement ratio greater than 1 and less than 10)”; (10 μM test compound) “C (A “C” value indicates an enhancement ratio greater than 1 and less than 10)”; (50 μM test compound) “C (A “C” value indicates an enhancement ratio greater than 1 and less than 10)”.
On to `NC1=NS(=O)(=O)Nc2cccc(OC[C@H]3CCCN(c4cc(C(=O)O)ccn4)C3)c21` [Compound 303], for which, under “50 μM test compound”, the “Fructose Enhancement EC50 Ratio” value is “C (A “C” value indicates an enhancement ratio greater than 1 and less than 10)”; the “Sucralose Enhancement EC50 Ratio” value is listed as “A (An “A” value indicates an enhancement ratio of greater than 20)”; the “Sucrose Enhancement EC50 Ratio” value was “C (A “C” value indicates an enhancement ratio greater than 1 and less than 10)”. For the same compound, under “10 μM test compound”, the “Sucralose Enhancement EC50 Ratio” value is “C (A “C” value indicates an enhancement ratio greater than 1 and less than 10)”; the “Sucrose Enhancement EC50 Ratio” value was “C (A “C” value indicates an enhancement ratio greater than 1 and less than 10)”. Moreover, the “Sucrose Enhancement EC50 Ratio” value (3 μM test compound) is “C (A “C” value indicates an enhancement ratio greater than 1 and less than 10)”.
Consider `CC(C)CNC(=O)c1ccnc(N2CCC[C@H](COc3cccc4c3C(N)=NS(=O)(=O)N4)C2)c1` [Compound 616], for which, under “50 μM test compound”, the “Fructose Enhancement EC50 Ratio” value was “C (A “C” value indicates an enhancement ratio greater than 1 and less than 10)”; the “Sucralose Enhancement EC50 Ratio” value is on record as “A (An “A” value indicates an enhancement ratio of greater than 20)”; the “Sucrose Enhancement EC50 Ratio” value is “C (A “C” value indicates an enhancement ratio greater than 1 and less than 10)”. For the setting “10 μM test compound”, the “Sucralose Enhancement EC50 Ratio” value is listed as “A (An “A” value indicates an enhancement ratio of greater than 20)”; the “Sucrose Enhancement EC50 Ratio” value is “C (A “C” value indicates an enhancement ratio greater than 1 and less than 10)”. Besides, the “Sucrose Enhancement EC50 Ratio” value (3 μM test compound) is “C (A “C” value indicates an enhancement ratio greater than 1 and less than 10)”.
For `Cc1cnc(NC(C)(C)COc2cccc3c2C(N)=NS(=O)(=O)N3)nc1` [Compound 100, 4-amino-5-(2-methyl-2-((5-methylpyrimidin-2-yl)amino)propoxy)-1H-benzo[c][1,2,6]thiadiazine 2,2-dioxide], the “Sucralose Enhancement EC50 Ratio” value reads like this: (10 μM test compound) “A (An “A” value indicates an enhancement ratio of greater than 20)”; (50 μM test compound) “A (An “A” value indicates an enhancement ratio of greater than 20)”. Moreover, the “Sucrose Enhancement EC50 Ratio” value (3 μM test compound) was “C (A “C” value indicates an enhancement ratio greater than 1 and less than 10)”; the “Sucrose Enhancement EC50 Ratio” value (10 μM test compound) was “C (A “C” value indicates an enhancement ratio greater than 1 and less than 10)”; the “Sucrose Enhancement EC50 Ratio” value (50 μM test compound) was “C (A “C” value indicates an enhancement ratio greater than 1 and less than 10)”.
